From patent publication US9567586B2, “EpCAM aptamer for detection of cancer stem cells” (DEAKIN UNIVERSITY, priority 2012, dated 2017)
Read-outs that look alike come from different tables or passages of the source.

What was measured:
[1] = target: T1, native EpCAM expressed on the cell surface (Homo sapiens, UniProt P16422); test: Binding affinities of EpCAM aptamers by flow cytometry; settings: read-out: KD (±SEM)
T1 construct: host or cells: T47D, MCF7, MDA-MB-231, HT-29 (EpCAM-positive); U118MG (EpCAM-negative control)
T1 sequence (P16422 24-314): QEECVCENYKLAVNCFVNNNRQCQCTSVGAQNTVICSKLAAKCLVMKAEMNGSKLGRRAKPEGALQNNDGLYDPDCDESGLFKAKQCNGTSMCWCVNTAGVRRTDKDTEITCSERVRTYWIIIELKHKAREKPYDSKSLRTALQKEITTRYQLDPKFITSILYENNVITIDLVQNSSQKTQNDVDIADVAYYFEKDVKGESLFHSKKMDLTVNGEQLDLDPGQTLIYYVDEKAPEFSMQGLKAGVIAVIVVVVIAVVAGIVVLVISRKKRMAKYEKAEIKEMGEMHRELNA
Method: (§1) Cells were harvested at 80% confluence with trypsin digestion and resuspended in washing buffer (DPBS with 5 mM MgCl2) and enumerated. Following centrifugation (1000×g for 5 min), the cell pellet was resuspended in assay buffer (DPBS supplemented with 5 mM MgCl2, 0.1 mg/ml tRNA, 0.1 mg/ml salmon sperm DNA, 0.2% [w/v] sodium azide, and 5% FCS) and diluted to 1×10^6/mL. The blocking step was carried out at 4′C. The binding of the aptamers was carried out at 37′C for 30 min or 4′C for 1 h, with the final concentration of magnesium chloride being 2.5 mM in all binding assays.
(§2) The equilibrium dissociation constant (K′d) of successful 2′-fluoropyrimidine RNA aptamer species to native EpCAM expressed on the cell surface was determined using flow cytometry with EpCAM-positive and -negative cell lines and a negative control (2-O-methyl-pyrimidine) aptamer (5′-DY647-mGCmGACUmGmGUUmACCCmGmGUCmGdT-3′) (SEQ ID NO:13). Kato III or U118MG cells (5×10^5) were first incubated with assay buffer followed by two washes with binding buffer prior to incubation with serial concentrations (approximately 10-fold above and below the apparent K′d) of FITC-labelled aptamer in a 100 μL assay buffer for 1 h on ice. The cells were washed three times, resuspended in 150 μL assay buffer containing 2.5 mM MgCl2 and subjected to flow cytometric analyses. The FITC-labelled unselected library was used as another negative control. The mean fluorescence intensity (MFI) of the unselected library was subtracted from that of the aptamer-target cell to generate the MFI of specific binding. The K′d for each aptamer was determined by Scatchard analysis according to the equation: [Bound aptamer]/[aptamer]=−(1/KD)×[bound aptamer]+([T]tol/KD) where [T]tot represents the total target concentration. Design and Generation of EpCAM Aptamer-siRNA Chimera
(§3) The binding affinities of both aptamers have been characterised against all five cell lines used in this study by flow cytometry, and the results are shown in Table 1.

[2] = system: native EpCAM expressed on the cell surface; test: as above; parameters: species or system human; settings: U118MG cells (EpCAM negative); read-out: KD (±SEM)
Method: as §1, §2, §3

EpCAM [3] = test: Immunofluorescence staining of paraffin embedded xenograft tumour sections; parameters: species or system human; key to Quantification of anti-EpCAM staining by immunofluorescence: ‘−’ no staining; ‘+’ faint incomplete staining in >10% of cells; ‘++’ moderate complete membrance staining; ‘+++’ strong complete membrance staining
Method: (§4) A: Immunofluorescence staining of breast cancer (T47D, MCF7 and MDA-MB-231), colon cancer (HT-29) and glioblastoma (U118MG) xenograft tumours by EpCAM aptamers, DT3 and 23, control aptamer and the anti-EpCAM antibody, 323/A3 (Blue: nuclei; Red: EpCAM positive staining). B: Immunohistochemistry was performed with the anti-EpCAM antibody BerEP4, and all tumours were evaluated by haematoxylin and eosin staining for morphological confirmation. Aptamer staining was performed for 15 min at 37° C., while 323/A3 staining was performed at 4° C. overnight and BerEP4 was performed at room temperature for 20 min. All fluorescent images were taken at 60×, while light microscopy images were taken at 20×. Images are representative of at least three separate experiments. Scale bar: 50 μm.
(§5) The cell lines of human origin used in this study were purchased from American type Culture Collection. They were glioblastoma U118-MG; breast carcinoma MCF-7, MDA-MB-231 and T47D; and colorectal adenocarcinoma HT-29. Cells were grown and maintained in culture with Dulbecco's Modified Eagle medium (DMEM) (Invitrogen, Victoria, Australia) supplemented with 10% fetal calf serum (MCF-7, T47D, HT-29, and U118-MG), or Roswell Park Memorial Institute 1640 (RPMI 1640) (Invitrogen) with 10% fetal calf serum (MDA-MB-231). Cells were maintained at 37 ^CC in a humidified atmosphere containing 5% CO2. For xenograft studies, single cell suspensions were harvested by trypsinisation, washed with PBS and resuspended in 0.1 mL of PBS for implantation in BALB/c-Foxn1 ^nu female mice. Once tumours had reached approximately […], they were excised and fixed in 10% neutral buffered formalin prior to processing and embedding. All animal procedures were approved by Deakin University Animal Welfare Committee, and in accordance with the Australian Code of Practice for the Care and Use of Animals for Scientific Purposes.
(§6) Sections from each of the xenograft tumours were cut at 4 μm onto polylysine coated slides prior to deparaffinisation with Histoclear and rehydration through graded ethanol. Heat induced antigen retrieval was performed in a microwave oven using Tris-EDTA buffer (10 mM Tris, 1 mM EDTA, 0.05% Tween 20, pH 9.0) for 20 min and the slides were allowed to cool prior to blocking with 0.1 mg/mL tRNA, 0.1 mg/mL salmon sperm DNA and 1 mg/mL bovine serum albumin (BSA) in phosphate buffered saline (PBS) for 20 min. Following the blocking step, slides were washed in PBS containing 0.1% Tween 20 twice for 2 min prior to incubation with either aptamer or antibody. Aptamers were prepared as previously described (Shigdar S et al, supra). Briefly, aptamers were heated to 85° C. for 5 min, allowed to cool to room temperature for 10 min and then heated at 37° C. for 15 min. Slides were incubated with aptamers at 100 nM concentration in a solution of PBS containing 5 mM MgCl2, 0.1 mg/mL tRNA, 1 mg/mL BSA, 10% dextran sulphate and 500 μg/mL heparin for 15 min at 37° C. The slides were then washed three times for 5 min each prior to incubation with Bisbenzimide Hoechst 33342 (3 μg/mL) for 10 min. Slides were then mounted using VECTASHIELD and coverslipped prior to visualisation using a Fluoview FV10i laser scanning confocal microscope. All images used for direct comparison were taken with identical exposure parameters and are presented without any digital contrast alteration or background subtraction. Antibody staining was performed using the anti-EpCAM antibody 323/A3 (ab8601, Abcam). […]

EpCAM [4] = target: T2, EpCAM (Homo sapiens, UniProt P16422); test: as above; parameters: from tissue; host or cells: xenograft tumours of T47D, MCF7, MDA-MB-231, HT-29 and U118MG cells grown in BALB/c-Foxn1 nu mice, formalin-fixed and paraffin-embedded; key to Quantification of anti-EpCAM staining by immunofluorescence: ‘−’ no staining; ‘+’ faint incomplete staining in >10% of cells; ‘++’ moderate complete membrance staining; ‘+++’ strong complete membrance staining
T2 sequence (P16422 24-314): T1 sequence (P16422 24-314)
Method: as §4, §5
as §6, with “Abcam). Slides were washed and blocked following the same protocol as previously described prior to antibody staining. The antibody was prepared at a concentration of 10 μg/mL and the slides were incubated overnight at 4° C. Slides were then washed three times for 5 min followed by incubation with a goat-anti-mouse IgG AlexaFluor 647 conjugate (Invitrogen) at a concentration of 10 μg/mL for 2 h prior to washing, staining with Bisbenzimide Hoechst 33342, and coverslipping.” for “Abcam).”

HT29 colon cancer cells = test: Tumoursphere formation in 96-well, HT29; format: cell-based, human; settings: HT29, 3 μM Dox equivalent, 5 days
Method: Under non-adherent and serum-free conditions, only the cancer stem cells (CSCs) and progenitor cells survive and undergo self-renewal as well as proliferate to form tumour spheres. The inventor studied the ability of aptamer-Dox to target cancer stem cells by plating various cell doses of single-cell suspension of HT29 colon cancer cells in ultra-low attachment 96-wells in the presence of 3 μM of free Dox, 3 μM equivalent Dox conjugated with aptamer, 3 μM Dox-negative control aptamer or vehicle control for 5 days. Tumour spheres (with a size >50 μm) were enumerated.

[5] = system: PLC/PRF/5 hepatocellular carcinoma cell line; test: Tumoursphere formation in 96-well, PLC/PRF/5; format: cell-based, human
EpCAM [6] = target: T2, EpCAM; settings: patients with metastatic breast cancer; cited from earlier work

5′-GCGACUGGUUACCCGGUCG-3′ (RNA aptamer, modifications not given here, further chemistry not given here) [DT3]
Kd ([1]; HT29 cells): 158 ± 70 nM | Kd ([1]; MCF7 cells): 50 ± 18.5 nM | Kd ([1]; MDA-MB-231 cells): 98.9 ± 37.8 nM | Kd ([1]; T47D cells): 74.2 ± 26.2 nM | Kd [2]: > 1000 nM | Quantification of anti-EpCAM staining by immunofluorescence (EpCAM [3]; U118MG xenograft): − | staining of U118MG xenograft (in words) (EpCAM [3]; U118MG xenograft that does not express EpCAM): no staining detectable | staining of HT-29 xenograft sections (in words) (EpCAM [4]; HT-29 colorectal cancer xenograft): did not show any staining | Quantification of anti-EpCAM staining by immunofluorescence (EpCAM [4]; HT-29 xenograft): − | Quantification of anti-EpCAM staining by immunofluorescence (EpCAM [4]; MCF7 xenograft): + (‘+’ faint incomplete staining in >10% of cells) | Quantification of anti-EpCAM staining by immunofluorescence (EpCAM [4]; MDA-MB-231 xenograft): + (‘+’ faint incomplete staining in >10% of cells) | detection of EpCAM in MDA-MB-231 xenograft tumour (in words) (EpCAM [4]; MDA-MB-231 xenograft, low EpCAM expression): successfully detect EpCAM | Quantification of anti-EpCAM staining by immunofluorescence (EpCAM [4]; T47D xenograft): ++ | staining of human breast cancer xenografts (in words) (EpCAM [4]; T47D, MCF7 and MDA-MB-231 xenografts, 100 nM, 15 min, 37° C., dextran sulphate and heparin): highly sensitive staining

CC[C@@H](C(=O)[C@@H](C)[C@@H](O)[C@H](C)[C@@H]1O[C@@H]([C@@H](CC)C(=O)O)CC[C@@H]1C)[C@H]1O[C@]2(C=C[C@@H](O)[C@]3(CC[C@@](C)([C@H]4CC[C@](O)(CC)[C@H](C)O4)O3)O2)[C@H](C)C[C@@H]1C [Saline, Salinomycin]
Number of wells with sphere (HT29 colon cancer cells; 1 cell seeded/well): 0/10 | Number of wells with sphere (HT29 colon cancer cells; 10 cells seeded/well): 0/10 | Number of wells with sphere (HT29 colon cancer cells; 100 cells seeded/well): 0/10 | Number of wells with sphere (HT29 colon cancer cells; 200 cells seeded/well): 2/10 | Number of wells with sphere ([5]; 1 cell seeded/well): 0/10 | Number of wells with sphere ([5]; 10 cells seeded/well): 0/10 | Number of wells with sphere ([5]; 100 cells seeded/well): 0/10 | Number of wells with sphere ([5]; 200 cells seeded/well): 0/10

adecatumumab: fully humanised monoclonal anti-EpCAM antibody
clinical response (EpCAM [6]): dose-dependent and target dependent clinical responses
